Data reported in patent US20230146455A1, “TREATMENT OF INFLAMMATORY DISEASES WITH PEPTIDES AND PHARMACEUTICAL COMPOSITIONS” (Yuyu Pharma, Inc., priority 2020, published 2023).
Several values for one entry are separate records, joined by “and”; a condition that tells them apart may be missing. Equal values may be shown once. Where a SMILES comes first, the peptide text is derived from it. [ ]: non-standard residue; d: D form. Hyp = O=C(O)[C@@H]1C[C@@H](O)CN1

Tested on: IL-6
Assay: Example 9 Luminex, LPS hPBMCs: IL-6
Format: cell-based, human
Details: Bead IL-6
Procedure: Treatment Human PBMCs were pretreated with YY-101, YDE-011 and YDE-043 or reference compound; Xiidra® at various concentration (ranging from 1 nM to 100 uM) for 2 h before stimulation. An equal volume of 0.5% DMSO was used as a vehicle control. Then, the cells were treated with LPS at 5 ug/ml. The supernatants from treated cells were harvested at 24 h and placed in a 96 well for Luminex cytokine & chemokine profiling using a Luminex 200 multiplex assay (Luminex; R&D system, USA).
The main study arm with triplicate wells per group in a 24-well plate: • 1. Blank • 2. PBMC: 0.5% DMSO • 3. PBMC+LPS (5 ug/ml) • 4. PBMC+YY-101 100 uM • 5. PBMC+YY-101 10 uM • 6. PBMC+YY-101 1 uM • 7. PBMC+YY-101 0.1 uM • 8. PBMC+YY-101 0.01 uM • 9. PBMC+LPS (5 ug/ml)+Xiidra®100 uM • 10. PBMC+LPS (5 ug/ml)+Xiidra® 10 uM • 11. PBMC+LPS (5 ug/ml)+Xiidra® 1 uM • 12. PBMC+LPS (5 ug/ml)+Xiidra®0.1 uM • 13. PBMC+LPS (5 ug/ml)+Xiidra®0.01 uM • 14. PBMC+LPS (5 ug/ml)+Xiidra®0.001 uM • 15. PBMC+LPS (5 ug/ml)+YY-101 100 uM • 16. PBMC+LPS (5 ug/ml)+YY-101 10 uM • 17. PBMC+LPS (5 ug/ml)+YY-101 1 uM • 18. PBMC+LPS (5 ug/ml)+YY-101 0.1 uM • 19. PBMC+LPS (5 ug/ml)+YY-101 0.01 uM • 20. PBMC+LPS (5 ug/ml)+YY-101 0.001 uM • 21. PBMC+LPS (5 ug/ml)+YDE-011 100 uM • 22. PBMC+LPS (5 ug/ml)+YDE-011 10 uM • 23. PBMC+LPS (5 ug/ml)+YDE-011 1 uM • 24. PBMC+LPS (5 ug/ml)+YDE-011 0.1 uM • 25. PBMC+LPS (5 ug/ml)+YDE-011 0.01 uM • 26. PBMC+LPS (5 ug/ml)+YDE-011 0.001 uM • 27. PBMC+LPS (5 ug/ml)+YDE-043 100 uM • 28. PBMC+LPS (5 ug/ml)+YDE-043 10 uM • 29. PBMC+LPS (5 ug/ml)+YDE-043 1 uM • 30. PBMC+LPS (5 ug/ml)+YDE-043 0.1 uM • 31. PBMC+LPS (5 ug/ml)+YDE-043 0.01 uM • 32. PBMC+LPS (5 ug/ml)+YDE-043 0.001 uM
Multiplex assay was used to measure 30 cytokines and chemokines. The 1:2, 1:10 and 1:200 diluted cell supernatant and serial dilution of the standard were dispensed into a 96 well plate at 50 ul/well. Then, the pre-mixed cocktail of antibody-coated magnetic beads was dispensed at 50 ul/well and incubated at room temperature for 2 h in a horizontal orbital microplate shaker at 800±500 rpm. The beads were washed using a magnetic device to prevent loss. The biotin-antibody was dispensed in 50 ul of each well and incubated at room temperature for 1 h in a shaker at 800±500 rpm. After washing, streptavidin-PE was added at 50 ul/well and incubated at room temperature for 30 min in a shaker under the same conditions. Finally, after washing, wash buffer (100 ul/well) was added to the plate and incubated in a shaker for 2 min. The Luminex™ 200 setting were set according to the manufacturer's protocol. The data was calculated with a standard five-parameter logistic nonlinear regression analysis of the data (xPonent software 4.2, USA). The levels of cytokine/chemokine are normalized to the live cell counts (1×10^5 cells/mL) and presented as concentrations per mL (pg/mL or ng/mL).

[1] = PBMC + LPS(5 ug/ml), 0.001 uM, Mean
[2] = PBMC + LPS(5 ug/ml), 0.001 uM, single replicates
[3] = PBMC + LPS(5 ug/ml), 0.01 uM, Mean
[4] = PBMC + LPS(5 ug/ml), 0.01 uM, single replicates
[5] = PBMC + LPS(5 ug/ml), 0.1 uM, Mean
[6] = PBMC + LPS(5 ug/ml), 0.1 uM, single replicates
[7] = PBMC + LPS(5 ug/ml), 1 uM, Mean
[8] = PBMC + LPS(5 ug/ml), 1 uM, single replicates
[9] = PBMC + LPS(5 ug/ml), 10 uM, Mean
[10] = PBMC + LPS(5 ug/ml), 10 uM, single replicates
[11] = PBMC + LPS(5 ug/ml), 100 uM, Mean
[12] = PBMC + LPS(5 ug/ml), 100 uM, single replicates
[13] = PBMC without LPS, 0.01 uM, Mean
[14] = PBMC without LPS, 0.01 uM, single replicates
[15] = PBMC without LPS, 0.1 uM, single replicates
[16] = PBMC without LPS, 1 uM, single replicates
[17] = PBMC without LPS, 10 uM, single replicates
[18] = PBMC without LPS, 100 uM, single replicates

CC(C)C[C@H](NC(=O)CNC(=O)[C@H](CC(=O)O)NC(=O)[C@H](CCC(N)=O)NC(=O)CNC(=O)[C@@H]1C[C@@H](O)CN1)C(=O)N[C@@H](C)C(=O)NCC(=O)N1CCC[C@H]1C(=O)N[C@@H](CCCCN)C(=O)O [YY-101] (H-[Hyp]GQDGLAGPK-OH; N-terminus and C-terminus assumed)
Concentration [1]: 12498.5 pg/mL
MFI [1]: 355.4
conc/live cell [1]: 1952.7 pg/10^5
Concentration [2]: 13037.8 pg/mL and 12646.1 pg/mL and 11811.7 pg/mL
MFI [2]: 371.3 and 359.8 and 335.3
conc/live cell [2]: 2287.3 pg/10^5 and 1781.1 pg/10^5 and 1789.6 pg/10^5
Concentration [3]: 13304.7 pg/mL
MFI [3]: 379.1
conc/live cell [3]: 2159.4 pg/10^5
Concentration [4]: 13276.3 pg/mL and 13531.9 pg/mL and 13106.0 pg/mL
MFI [4]: 378.3 and 385.8 and 373.3
conc/live cell [4]: 2074.4 pg/10^5 and 2255.3 pg/10^5 and 2148.5 pg/10^5
Concentration [5]: 12816.4 pg/mL
MFI [5]: 364.8
conc/live cell [5]: 2203.2 pg/10^5
Concentration [6]: 12441.7 pg/mL and 13157.1 pg/mL and 12850.5 pg/mL
MFI [6]: 353.8 and 374.8 and 365.8
conc/live cell [6]: 2006.7 pg/10^5 and 2530.2 pg/10^5 and 2072.7 pg/10^5
Concentration [7]: 13020.8 pg/mL
MFI [7]: 370.8
conc/live cell [7]: 2001.1 pg/10^5
Concentration [8]: 13242.2 pg/mL and 12867.5 pg/mL and 12952.6 pg/mL
MFI [8]: 377.3 and 366.3 and 368.8
conc/live cell [8]: 2101.9 pg/10^5 and 1812.3 pg/10^5 and 2089.1 pg/10^5
Concentration [9]: 14020.8 pg/mL
MFI [9]: 400.1
conc/live cell [9]: 2132.1 pg/10^5
Concentration [10]: 13975.0 pg/mL and 15049.6 pg/mL and 13037.8 pg/mL
MFI [10]: 398.8 and 430.3 and 371.3
conc/live cell [10]: 2329.2 pg/10^5 and 2351.5 pg/10^5 and 1715.5 pg/10^5
Concentration [11]: 15533.5 pg/mL
MFI [11]: 444.4
conc/live cell [11]: 2685.2 pg/10^5
Concentration [12]: 16142.7 pg/mL and 15459.3 pg/mL and 14998.4 pg/mL
MFI [12]: 462.3 and 442.3 and 428.8
conc/live cell [12]: 2562.3 pg/10^5 and 2493.4 pg/10^5 and 2999.7 pg/10^5
MFI [13]: 3.3
conc/live cell [13]: 0.0 pg/10^5
MFI [14]: 4.3 and 2.3
conc/live cell [14]: 0.0 pg/10^5
MFI (PBMC without LPS, 0.1 uM, Mean): 1.3
conc/live cell (PBMC without LPS, 0.1 uM, Mean): 0.0 pg/10^5
MFI [15]: 1.3
conc/live cell [15]: 0.0 pg/10^5
MFI (PBMC without LPS, 1 uM, Mean): 1.8
conc/live cell (PBMC without LPS, 1 uM, Mean): 0.0 pg/10^5
MFI [16]: 2.3 and 1.3
conc/live cell [16]: 0.0 pg/10^5
Concentration (PBMC without LPS, 10 uM, Mean): 880.7 pg/mL
MFI (PBMC without LPS, 10 uM, Mean): 15.3
conc/live cell (PBMC without LPS, 10 uM, Mean): 68.8 pg/10^5
Concentration [17]: 880.7 pg/mL
MFI [17]: 27.3 and 3.3
conc/live cell [17]: 137.6 pg/10^5 and 0.0 pg/10^5
Concentration (PBMC without LPS, 100 uM, Mean): 524.7 pg/mL
MFI (PBMC without LPS, 100 uM, Mean): 15.8
conc/live cell (PBMC without LPS, 100 uM, Mean): 41.0 pg/10^5
Concentration [18]: 524.7 pg/mL
MFI [18]: 19.8 and 11.8
conc/live cell [18]: 82.0 pg/10^5 and 0.0 pg/10^5
